Test results as given in ChEMBL document CHEMBL1201862, “PubChem BioAssay data set” (2004).
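Following 48 hours of exposure in 96-well plates, responses at five concentrations were used to interpolate endpoints linearly. Abbreviation: GI50, concentration required for 50% inhibition of growth.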 Calls of active or inactive are those of the source. Cut-off read from the data, not from the text of the source: active = GI50 up to about 1.1 µM and inactive = higher.

Columns and labels:
Test in all cases: NCI-60 cell line screen, 48 h
SK-MEL-5 = system: SK-MEL-5
SNB-19 = system: SNB-19
RXF 393 = system: RXF 393
NCI-H522 = system: NCI-H522
SK-MEL-28 = system: SK-MEL-28
M14 = system: M14
MDA-MB-435 = system: MDA-MB-435
HCT-15 = system: HCT-15
U-251 = system: U-251
SR = system: SR
NCI-H23 = system: NCI-H23
SK-OV-3 = system: SK-OV-3
COLO 205 = system: COLO 205
MOLT-4 = system: MOLT-4
K562 = system: K562
HOP-92 = system: HOP-92
SN12C = system: SN12C
HCC 2998 = system: HCC 2998
CAKI-1 = system: CAKI-1
MCF7 = system: MCF7

**Q.** For `O=C(O)c1ccccc1CC1Cc2ccccc2C1=O` (stereo not given), which GI50 (SK-MEL-5) is on record?
**A.** > 100 µM (inactive)

**Q.** What about the GI50 (SNB-19) of the same molecule?
**A.** > 100 µM (inactive)

**Q.** And the GI50 (RXF 393)?
**A.** > 100 µM (inactive)

**Q.** What about the GI50 (NCI-H522) of the same molecule?
**A.** > 100 µM (inactive)

**Q.** What about the GI50 (SK-MEL-28) of the same molecule?
**A.** > 100 µM (inactive)

**Q.** And the GI50 (M14)?
**A.** > 100 µM (inactive)

**Q.** What about the GI50 (MDA-MB-435) of the same molecule?
**A.** > 100 µM (inactive)

**Q.** What about the GI50 (HCT-15) of the same molecule?
**A.** > 100 µM

**Q.** And the GI50 (U-251)?
**A.** > 100 µM (inactive)

**Q.** And the GI50 (SR)?
**A.** > 100 µM (inactive)

**Q.** And the GI50 (NCI-H23)?
**A.** > 100 µM (inactive)

**Q.** And the GI50 (SK-OV-3)?
**A.** > 100 µM (inactive)

**Q.** And the GI50 (COLO 205)?
**A.** > 100 µM (inactive)

**Q.** What about the GI50 (MOLT-4) of the same molecule?
**A.** > 100 µM (inactive)

**Q.** And the GI50 (K562)?
**A.** > 100 µM (inactive)

**Q.** And the GI50 (HOP-92)?
**A.** > 100 µM (inactive)

**Q.** What about the GI50 (SN12C) of the same molecule?
**A.** > 100 µM (inactive)

**Q.** What about the GI50 (HCC 2998) of the same molecule?
**A.** > 100 µM (inactive)

**Q.** And the GI50 (CAKI-1)?
**A.** > 100 µM (inactive)

**Q.** And the GI50 (MCF7)?
**A.** > 100 µM (inactive)

**Q.** Which GI50 (SK-MEL-5) does the source give for `Cc1cccc2c(N)c3cccc(C(=O)NCC[N+]4(Cc5ccc([N+](=O)[O-])cc5)CCOCC4)c3nc12` here?
**A.** 53.5 µM (inactive)

**Q.** What about the GI50 (SNB-19) of the same molecule?
**A.** 18.2 µM (inactive)

**Q.** And the GI50 (RXF 393)?
**A.** 62.2 µM (inactive)

**Q.** And the GI50 (NCI-H522)?
**A.** 13.5 µM (inactive)

**Q.** What about the GI50 (SK-MEL-28) of the same molecule?
**A.** 49.7 µM (inactive)

**Q.** What about the GI50 (M14) of the same molecule?
**A.** 71.8 µM (inactive)

**Q.** And the GI50 (MDA-MB-435)?
**A.** 80.5 µM (inactive)

**Q.** And the GI50 (HCT-15)?
**A.** 45.1 µM

**Q.** And the GI50 (U-251)?
**A.** 38.8 µM (inactive)

**Q.** What about the GI50 (SR) of the same molecule?
**A.** 20.8 µM (inactive)

**Q.** And the GI50 (NCI-H23)?
**A.** 35.9 µM (inactive)

**Q.** And the GI50 (SK-OV-3)?
**A.** > 100 µM (inactive)

**Q.** And the GI50 (COLO 205)?
**A.** 45.9 µM (inactive)

**Q.** And the GI50 (MOLT-4)?
**A.** 13.5 µM (inactive)

**Q.** And the GI50 (K562)?
**A.** 16 µM (inactive)

**Q.** And the GI50 (HOP-92)?
**A.** 22.4 µM (inactive)

**Q.** And the GI50 (SN12C)?
**A.** 3.99 µM (inactive)

**Q.** What about the GI50 (HCC 2998) of the same molecule?
**A.** 12.3 µM (inactive)

**Q.** What about the GI50 (CAKI-1) of the same molecule?
**A.** > 100 µM (inactive)

**Q.** What about the GI50 (MCF7) of the same molecule?
**A.** 38.9 µM (inactive)
